Reference: US7252953B2, “Method of detecting and preventing Alzheimer's disease, particularly at prodromal and early stages” (United States of America Department of Veterans Affairs, priority 2002, dated 2007)
“Also recorded” adds a separate entry of the source.

Assays:
p38 MAPK = p38 MAPK phosphorylation in microglial cells (WB); type: cell-based, murine
Protocol: (§1) Primary microglial cultures were prepared from neonatal mouse (C57BL6) brains as previously described (Reference 29) and maintained in Delbecco's modified Eagle's medium with F-12 nutrient mixture (DMEM/F12) containing 10% fetal bovine sera (FBS) and antibiotics. N9 clonal murine microglial cell cultures were maintained in Iscoves modified Delbecco's medium (IMDM) containing 5% heat-inactivated FBS, 2 mM L-glutamine, 50 μM 2-mercaptoethanol and antibiotics. Treatment of both primary and N9 microglial cells were performed under serum-free conditions. Freshly solublized Aβ (BioSource, Camarillo, Calif.) peptides were prepared and characterized as previously described (References 30 and 44) and were used in all in vitro experiments. Unless specified, cells were always pretreated with sAβ for 5 min and then followed by challenge with α-thrombin (100 nM or as indicated), glutamate (2 mM) or LPS (5 ng/ml).
(§2) Cultured cells were lysed in pre-chilled 2×IP buffer I (Tris, 20 mM, pH 7.4; NaCl, 300 mM; EDTA, 2 mM; 2 mM EGTA, pH 8.0; 0.4 mM sodium ortho-vanadate, 2% Triton X-100; 1% NP-40; 0.4 mM PMSF) supplemented both with phosphatase and protease inhibitor cocktails. After centrifugation, the supernatants were collected and total protein concentrations were determined by the bicinchoninic acid assay (BCA). Equal amounts (250 μg) of cell lysates from each group were mixed with 20 μl (˜5 μg) of either PAR1 or PAR4 antibodies, and brought to a total volume of 1 ml in 1×IP buffer. Following a 1 hour incubation at 4° C., appropriate secondary antibody-agarose conjugates were added followed by incubation (30 min with agitation), centrifugation and sufficient washes. The pellets were resuspended in 30 μl of electrophoresis sample buffer and boiled for 5 min. The supernatants were directly used for polyacrylamide sodium dodecyl sulfate gel electrophoresis (SDS-PAGE) and WB analysis. To prepare subcellular fractions of brain samples, we homogenized fresh or fresh-frozen tissues in Tris buffered saline solution (Tris, 10 mM, pH 7.4; NaCl, 150 mM; EDTA, 1 mM; 1 mM EGTA, pH 8.0; 0.2 mM sodium ortho-vanadate) supplemented with protease inhibitor cocktails. After centrifugation (12,000 g at 4° C. for 15 min), the supernatants were collected as cytosolic fractions. The pellets were resuspended in 1×IP buffer containing protease inhibitor cocktail. Following brief sonication and centrifugation (12,000 g at 4° C. for 15 min), the supernatants were collected as membrane fractions. Both antibodies to GRK2 and GRK5 (Santa Cruz) were diluted 1:500 for WB, other routine procedures, WB for total and phospho-p44/42 MAPK, and semi-quantitative analysis of protein band density were performed as previously described (Reference 29).
(§3) In previous studies, we found thrombin signaling via PARs in microglial cells involving [Ca^2+]i increase and transient activation of both p38 and p44/42 mitogen-activated protein kinases (MAPKs) (Reference 29). To understand potential consequences of GRK dysfunction induced by sAβ, for these studies we also assessed changes in thrombin signaling in sAβ-pretreated microglial cells.
(§4) FIG. 5A, N9 microglial cells were pre-treated with 500 nM sAβ1-42 (arrow “1”) followed by 100 nM thrombin treatment (arrow “2”). Changes in [Ca^2+]i were measured as previously described (Reference 29) from three separate experiments. […] For both FIGS. 5B and 5C, lane M=Marker, 1=Control (0 min), 2=Control (25 min), 3=Aβ1-42 (25 min), 4=Thrombin (20 min), 5=Aβ1-42+thrombin (20 min post-Aβ), 6=Control (24 h), 7=Aβ1-42 (24 h), 8=Thrombin (24 h) and 9=Aβ1-42+thrombin (24 h post-Aβ). “P” and “T” indicate phosphorylated and total p38 or p44/42 MAPKs, respectively.

TNF-α [1] = experiment: TNF-α release in N9 clonal murine microglial cells; type: cell-based
Protocol: as §1
(§5) TNF-α production in microglial culture media was measured and standardized as previously described (Reference 29).
(§6) Given our results that sAβ disrupts GRK function and inhibits GPCR desensitization in microglia, we next investigated whether such signaling dysregulation might lead to cellular functional changes in microglia. Both primary and N9 clonal murine microglial cultures were used and TNF-α secretion in culture media was measured as an outcome. […] Moreover, the potentiation effect of sAβ on thrombin and glutamate-induced microglial activation was dose-dependent, with a minimal effective concentration (ECmin) of 20 nM and a maximal EC (ECmax) of 500 nM. Furthermore, the enhancement effect was not observed if sAβ was given after (10 min) thrombin or glutamate treatments. […] Together with the evidence that sAβ inhibits GRK-GPCR interactions and causes prolongation of GPCR signaling, we conclude that sAβ, by disrupting GRK function, alters microglial reactivity to specific GPCR activators.
FIG. 6A, pretreatment with sAβ1-42 potentiated (p<0.01) TNF-α release induced by increasing doses of thrombin (Thr) as indicated from primary mouse brain microglial cultures. n=4. […] The ECmin and ECmax for sAβ's potentiation are approximately 20 nM and 500 nM, respectively. n=6.

TNF-α [2] = experiment: TNF-α release in primary mouse brain microglial cultures; type: cell-based
Protocol: as §1, §5, §6
FIG. 6A, pretreatment with sAβ1-42 potentiated (p<0.01) TNF-α release induced by increasing doses of thrombin (Thr) as indicated from primary mouse brain microglial cultures. n=4. […]

[3] = system: fibrillar actin (F-actin); experiment: Phalloidin staining of F-actin in microglial cells; type: cell-based, murine
Protocol: Microglial cells were seeded onto poly-L-lysine-coated 8-chamber slides at a density of 1×10^4/well. After various treatments, cells were immediately fixed with pre-chilled (4° C.) 5% acetic acid in methanol for 45 min at 4° C., followed by washing with PBS. The fixed cells were blocked and double-stained with phalloidin-FITC (1:1,000) and anti-GRK5 (1:500) or GRK2 (1:500). Secondary antibody-Cy3 conjugates (1:500) staining, washing, mounting and confocal microscopic visualization were performed routinely as previously described (Reference 29).
Microglial-mediated inflammation is an important pathological component of AD (Reference 28). […] Thrombin, a serine protease is known to activate protease-activated GPCRs, (PARs) such as PAR1 (Reference 29) and PAR4 in microglia. The sAβ preparation used in this study has been previously characterized as composed principally of conformational intermediates by CD-spectrum (Reference 30) and a mixture of monomeric and oligomeric Aβ by Western blotting.

[Ca^2+]i = Ca2+ imaging (Fluo-4) in microglial cells; type: cell-based, murine; details: sAβ-pretreated cells (500 nM sAβ1-42), then 100 nM thrombin
Protocol: as §1
We measured [Ca^2+]i in microglial cells using Fluo-4 (2 μM) with the aid of a Nikon BioRadiance triple laser scanning confocal microscope. Image collection, quantification and data analysis were performed as previously described (Reference 29).
as §3, §4

p44/42 MAPK = p44/42 MAPK phosphorylation in microglial cells (WB); type: cell-based, murine
Protocol: as §1, §2, §3, §4

PARs-GRKs binding = experiment: Inhibition of GRK-PAR binding by sAβ-pretreatment in microglial cells (IP and WB, all examined PARs and GRKs); type: cell-based, murine; details: sAβ1-42 500 nM pretreatment 5 min, then 100 nM thrombin 30 seconds
Protocol: as §1, with “Unless specified, cells were always pretreated with sAβ for 5 min and then followed by challenge with α-thrombin (100 nM or as indicated), glutamate (2 mM) or LPS (5 ng/ml).” left out
Cultured cells were lysed in pre-chilled 2×IP buffer I (Tris, 20 mM, pH 7.4; NaCl, 300 mM; EDTA, 2 mM; 2 mM EGTA, pH 8.0; 0.4 mM sodium ortho-vanadate, 2% Triton X-100; 1% NP-40; 0.4 mM PMSF) supplemented both with phosphatase and protease inhibitor cocktails. After centrifugation, the supernatants were collected and total protein concentrations were determined by the bicinchoninic acid assay (BCA). […] Both antibodies to GRK2 and GRK5 (Santa Cruz) were diluted 1:500 for WB, other routine procedures, WB for total and phospho-p44/42 MAPK, and semi-quantitative analysis of protein band density were performed as previously described (Reference 29). […]

[4] = sAβ pretreatment (5 min) followed by thrombin, within 20 min post-Aβ treatment
[5] = sAβ-pretreatment followed by thrombin, 24 h
[6] = substance alone, within 20 min post-Aβ treatment
[7] = 5 min pretreatment, N9 cells, FIG. 6B

Q: Which results are given for “sAβ: Soluble β-amyloid, chain length not stated at the place; sAβ1-42 (500 nM) in Examples 3-6”?
A: p38 MAPK phosphorylation (p38 MAPK; [4]): increased phosphorylation; p38 MAPK phosphorylation (p38 MAPK; [5]): remained elevated; also recorded: persistent phosphorylation; p38 MAPK phosphorylation (p38 MAPK; substance alone, 24 h): returned to basal levels; p38 MAPK phosphorylation (p38 MAPK; [6]): increased phosphorylation; effect of sAβ pretreatment on LPS-induced TNF-α release (TNF-α [1]; [7]): not; effect of sAβ pretreatment on glutamate-induced TNF-α release (TNF-α [1]; [7]): significantly potentiated; effect of sAβ pretreatment on thrombin-induced TNF-α release (TNF-α [1]; [7]): significantly potentiated; TNF-α release induced by sAβ alone (TNF-α [1]; nM concentrations, N9 clonal microglial cultures): insufficient to induce significant TNF-α release; also recorded: not significant; maximal EC (ECmax) of sAβ's potentiation (TNF-α [1]; potentiation of thrombin- and glutamate-induced TNF-α release): 500 nM; enhancement of TNF-α release when sAβ is given after thrombin or glutamate (post-treatment) (TNF-α [1]; sAβ given 10 min after thrombin or glutamate): not observed; effect of sAβ pretreatment on thrombin-induced TNF-α release (TNF-α [2]; 5 min pretreatment, FIG. 6A): significantly potentiated; TNF-α release induced by sAβ alone (TNF-α [2]; nM concentrations): insufficient to induce significant TNF-α release; formation of fibrillar actin (F-actin) [3]: caused rapid formation of fibrillar actin (F-actin); [Ca^2+]i reached by the subsequent slow climb, without decrease ([Ca^2+]i): greater than 450 nM; p44/42 MAPK phosphorylation (p44/42 MAPK; [4]): increased phosphorylation; p44/42 MAPK phosphorylation (p44/42 MAPK; [5]): remained elevated; also recorded: persistent phosphorylation; p44/42 MAPK phosphorylation (p44/42 MAPK; substance alone, 24 h): returned to basal levels; p44/42 MAPK phosphorylation (p44/42 MAPK; [6]): increased phosphorylation; binding of all examined PARs to GRKs after thrombin in sAβ-pretreated cells (PARs-GRKs binding): essentially abolished; also recorded: almost completely abolished
